From patent publication US10533034B2, “Human iNKT cell activation using glycolipids” (ACADEMIA SINICA, priority 2014, dated 2020)

Legend:
B6 wild type mice = settings: previously reported; cited from earlier work
[1] = tested on: human naïve Vα24+ iNKT cells; experiment: Expansion of human iNKT cells; type: cell-based; settings: 100 ng/ml; counted on day 9
Protocol: Human naïve Vα24^+ iNKT cells were cultured with autologous immature CD14^+ DCs pulsed with the indicated glycolipid at 100 ng/ml or DMSO on day 2 for 18 h. On day 3, the suspension cells were transferred to a new dish, cultured in the presence of 50 U/ml IL-2 (R & D Systems), and replenished with fresh medium every 3 days. The percentage of Vα24^+/Vβ11^+ cells was determined by flow cytometry on day 9. The total cell number after expansion was calculated with the Guava ViaCount reagent (Millipore, USA) and detected by the Guava system with CytoSoft™ software containing the ViaCount module (Millipore, USA).
As described above, glycolipid analogs with αGal were stronger immune modulators than those with αGlc in mice, especially for the comparison between 7DW8-5 and 7DW8-5-Glc. To investigate if similar trends also applied to human iNKT cells, Vα24^+ iNKT cells isolated from the peripheral blood were incubated with immature DCs pulsed with the indicated glycolipid at 100 ng/ml on day 2. After antigen removal on day 3, human iNKT cells were cultured in the presence of IL-2. The number of expanded iNKT cells was counted using the Guava ViaCount reagent on day 9.

B6 WT mice splenocytes = experiment: FACS analyses of WT mouse immune cells after glycolipid stimulation; type: in vivo; settings: 1 μg/mouse; 3 days
Protocol: B6 WT mice treated with the indicated glycolipid (1 μg/mouse) or vehicle (1% DMSO in PBS) were sacrificed at 72 hr post-injection and their splenocytes were subjected to FACS analysis. (8A) The total splenocytes, (8B) total CD11Chi cells, (8C) CD11Chi/CD80+ cells, (8D) CD11Chi/CD86+ cells, (8E) CD4^+ T cells and (8F) CD8^+ T cells.
B6 WT or Jα18 KO mice treated with specific glycolipid (1 μg/mouse) or vehicle (1% DMSO in PBS) were sacrificed at 72 hr post-injection and their spleens were harvested. After pressing spleens through 70 um strainer and lysis of erythrocytes, the nucleated cells were resuspended in PBS buffer containing azide (0.05%) and stained with antibodies recognizing the indicated cell surface antigens for 30 min at 4° C. After washing, the splenocytes were subjected to FACS analysis. The antibodies against CD3, CD4, CD8α, CD11c, CD80, and CD86 were obtained from BD Bioscience-Pharmingen.
Next, we analyzed the expansion/activation of immune cells in WT mice 3 days after glycolipid stimulation. The numbers of total T cells, CD4^+ T and CD8^+ T cells were higher in mice treated by GSLs with αGal head than those treated by GSLs with αGlc (FIGS. 2C, 8E and 8F). This was in line with the observation that more cytokines/chemokines were induced by GSLs with αGal than GSLs with αGlc in mice (FIGS. 2A, 2B and 7). […] As compared to 7DW8-5-Glc, C1-Glc not only expanded ˜1.3 fold more splenocytes and DCs (FIGS. 8A and 8B) but also activated ˜3.5 fold more CD80^+ DCs as well as ˜3 fold more CD86^+ DCs (FIGS. 8C and 8D). The increased expansion/activation of DCs may contribute to the stronger immunogenicity triggered by C1-Glc and C34-Glc as compared to 7DW8-5-Glc in vivo.

[2] = tested on: Murine DN3A4-1.2 Vα14 iNKT hybridoma cells; experiment: mCD1d vs. hCD1d swapping assay, murine iNKT cells; type: cell-based, mouse; settings: presented by mCD1d or hCD1d; 1, 0.1, 0.01 μg/ml
Protocol: (§1) (4A) Murine DN3A4-1.2 Vα14+ iNKT hybridoma cells or (4B) C1-expanded Vα24^+ iNKT cells were pulsed with the indicated glycolipid presented by either mCD1d (A20-CD1d cells) or hCD1d (HeLa-CD1d cells) at 1, 0.1, and 0.01 μg/ml. After 18 hr, the supernatants were harvested to measure IL-2 secretion by an ELISA assay (4A) or using Beadlyte® Human Cytokine kit and Luminex® 200™ reading system (4B). Assays were performed in triplicates. 8-5 was the abbreviation of 7DW8-5.
(§2) Murine DN3A4-1.2 Vα14 iNKT hybridoma cells or C1-expanded Vα24^+ iNKT cells were pulsed with the indicated glycolipid antigen presented either by mCD1d (A20-CD1d cells) or hCD1d (HeLa-CD1d cells) at 1, 0.1, and 0.01 μg/ml. After 18 hr, the supernatants were harvested for the measurement of cytokine secretion(s). IL-2 released from Vα14^+ iNKT cells was determined by ELISA assay. IFN-γ, IL-4 and IL-2 secreted from Vα24^+ iNKT cells were detected using Beadlyte® Human Cytokine kit (Millipore, N.Y., USA) and Luminex® 200™ reading system.
To explain the species-specific responses, we examined the effects of swapping human vs. mouse CD1d molecules against human vs. murine iNKT cells on the stimulatory activities of GSLs with different glycosyl groups. […]

[3] = tested on: C1-expanded Vα24+ iNKT cells; experiment: mCD1d vs. hCD1d swapping assay, human iNKT cells; type: cell-based; settings: presented by mCD1d or hCD1d; 1, 0.1, 0.01 μg/ml
Protocol: as §1
C1-expanded Vα24^+ iNKT cells were pulsed with the indicated glycolipid antigen presented by either mCD1d (A20-CD1d cells) or hCD1d (HeLa-CD1d cells) at 1, 0.1, and 0.01 μg/ml. After 18 hr, the supernatants were harvested for the measurement of IFN-γ (12A) and IL-4 (12B) secretions. (12C) The ratio of IFN-γ over IL-4 was calculated at different concentrations of glycolipids. […]
as §2, with “After 18 hr, the supernatants were harvested for the measurement of cytokine secretion(s).” left out, “system. […]” for “system.”

## CCCCCCCCCCCCCC[C@@H](O)[C@@H](O)[C@H](CO[C@H]1O[C@H](CO)[C@H](O)[C@H](O)[C@H]1O)NC(=O)CCCCCCCCCCc1ccc(F)cc1 [Compound 7DW8-5, reference compound]
B6 wild type mice
  dose sufficient for immune stimulation: 0.1 μg/mouse

## CC[C@@H](O)[C@@H](O)[C@H](CO[C@H]1OC(CO)[C@@H](O)C(O)C1O)NC(=O)Cc1ccc(F)cc1 (some centres unmarked) [Compound 7DW8-5-Glc]
[1]
  expansion of human iNKT cells in vitro compared with 7DW8-5: significantly (p=0.0009) better

## CCCCCCCCCCCCCC[C@@H](O)[C@@H](O)[C@H](CO[C@H]1O[C@H](CO)[C@@H](O)[C@H](O)[C@@H]1O)NC(=O)CCCCCCCCCCc1ccc(F)cc1 [Compound 7DW8-5-Man]
B6 WT mice splenocytes
  expansion of immune cells in WT mice: did not expand any types of immune cells
[2]
  cytokine (IL-2) secretion from murine iNKT cells: could not stimulate
[3]
  cytokine secretion (IL-2, IFN-γ, IL-4) from human iNKT cells: could not stimulate
